One assay has as its system mutant yeast strain taz1. Put plainly: Halos test: respiratory growth of mutant yeast strain taz1 on non-fermentable solid medium. Type of assay: cell-based, Saccharomyces cerevisiae. The settings on record: 100 nmoles; compared with ebselen 100 nmoles; no halo with DMSO. The source says: C/ Effect (detected by the halos test) of ebselen oxide on the respiratory growth of the mutant yeast strain taz1 on non-fermentable solid medium, in comparison with ebselen (B) and DMSO (D)
As previously described (WO2020/254632), the different mutant yeast strains were spread over the solid respiratory agar-agar based media (containing glycerol or ethanol as the unique carbon source) and exposed to filters on which the compound tested, in particular ebselen (EBS) was deposited. The dishes were then incubated at the temperature indicated (that could be 28° C. or 36° C. depending on the strain used).
More precisely, 0.125 OD of mutant cells with exponential growth were spread homogeneously with sterile glass beads in a square Petri dish (12 cm×12 cm) containing a solid respiratory medium (YPA Ethanol, 1% yeast extract, 0.5% Bacto Peptone, 40 mg/L Adenine, 2% Ethanol for sym1 and taz1; or YPA Glycerol 2% for cox2, fmc1, atp6, shy1 et A29G). […] On each dish, the DMSO (buffer) was used as negative control (upper left-hand filter). The dishes were then incubated at 28° C. (for shy1) or 36° C. (for cox2, sym1, fmc1, atp6 taz1 and A29G) for 4 to 5 days, then photographed. The improvement of the growth was evaluated after a plurality of days of incubation by the appearance of a halo of improved growth around the filter where the active ingredient was deposited.

The test system of assay [1] is fibroblasts of TAZ patients. Put plainly: Respiratory growth/proliferation of fibroblasts of TAZ patients (SRB, low glucose). Type of assay: cell-based, human. As to conditions: 96 hours; vs negative control DMSO. Here is the method: EBS was tested for the effect thereof on the respiratory growth of fibroblasts of TAZ patients, as opposed to fibroblasts from eight different patients, carriers of mutations in the TAZ gene (suffering from Barth's syndrome).
The rate of proliferation was measured in a medium with a weak concentration of glucose (1 g/L; to force cells to use the OXPHOS system rather than glycolyse) in 384 well micro-titration plates (1200 cells/wells at T0) using the Sulforhodamine B (SRB) staining protocol at 24, 48, 72 or 96 hours after placing the cells with or without 12.15 nM of EBS.
The data are the average of 8 patients or 3 controls in triplicate, in 4 independent experiments.
The rate of proliferation was then measured under the same experimental conditions but with variable concentrations of ethaselen: The cells were analyzed 96 hours after treatment with increasing doses of ethaselen (from 150 pM to 26.1 μM). The bars represent the average of 4 replicates coming from 2 patients in 3 independent experiments.

From patent US20260000645A1, “USE OF EBSELEN OR ONE OF THE DERIVATIVES THEREOF TO TREAT MITOCHONDRIAL PATHOLOGIES OR DYSFUNCTIONS” (ASSOCIATION FRANCAISE CONTRE LES MYOPATHIES, priority 2022, published 2026) come the findings set out here.

Molecules are shown by their SMILES. Some results are limits rather than exact numbers.

Take `O=C1c2ccccc2[Se](=O)N1c1ccccc1` (stereo not drawn) [ebselen oxide, 1-oxide-2-phenyl-1,2-benzisoselenazol-3(2H)-one]: the “respiratory growth (halo) of mutant taz1” value with mutant yeast strain taz1 is reported as “activity comparable to ebselen”.
Take `O=c1c2ccccc2[se]n1CCn1[se]c2ccccc2c1=O` [ethasalen, Ethaselen]: in assay [1], the “concentration range improving respiratory growth/proliferation, lower limit” value is reported as “about 1 nM” and the “concentration range improving respiratory growth/proliferation, upper limit” value was at most 3 µM.
